Data from patent US20140135319A1, “6-SUBSTITUTED IMIDAZOPYRAZINES FOR USE AS MPS-1 AND TKK INHIBITORS IN THE TREATMENT OF HYPERPROLIFERATIVE DISORDERS” (BAYER INTELLECTUAL PROPERTY GMBH, priority 2010, published 2014).

Target: T1, human kinase Mps-1 (Homo sapiens, UniProt P33981)
T1 construct: N-terminally GST-tagged human full length recombinant Mps-1 kinase; GST (N); purchased Invitrogen, Karslruhe, Germany PV4071
T1 sequence (P33981 1-857): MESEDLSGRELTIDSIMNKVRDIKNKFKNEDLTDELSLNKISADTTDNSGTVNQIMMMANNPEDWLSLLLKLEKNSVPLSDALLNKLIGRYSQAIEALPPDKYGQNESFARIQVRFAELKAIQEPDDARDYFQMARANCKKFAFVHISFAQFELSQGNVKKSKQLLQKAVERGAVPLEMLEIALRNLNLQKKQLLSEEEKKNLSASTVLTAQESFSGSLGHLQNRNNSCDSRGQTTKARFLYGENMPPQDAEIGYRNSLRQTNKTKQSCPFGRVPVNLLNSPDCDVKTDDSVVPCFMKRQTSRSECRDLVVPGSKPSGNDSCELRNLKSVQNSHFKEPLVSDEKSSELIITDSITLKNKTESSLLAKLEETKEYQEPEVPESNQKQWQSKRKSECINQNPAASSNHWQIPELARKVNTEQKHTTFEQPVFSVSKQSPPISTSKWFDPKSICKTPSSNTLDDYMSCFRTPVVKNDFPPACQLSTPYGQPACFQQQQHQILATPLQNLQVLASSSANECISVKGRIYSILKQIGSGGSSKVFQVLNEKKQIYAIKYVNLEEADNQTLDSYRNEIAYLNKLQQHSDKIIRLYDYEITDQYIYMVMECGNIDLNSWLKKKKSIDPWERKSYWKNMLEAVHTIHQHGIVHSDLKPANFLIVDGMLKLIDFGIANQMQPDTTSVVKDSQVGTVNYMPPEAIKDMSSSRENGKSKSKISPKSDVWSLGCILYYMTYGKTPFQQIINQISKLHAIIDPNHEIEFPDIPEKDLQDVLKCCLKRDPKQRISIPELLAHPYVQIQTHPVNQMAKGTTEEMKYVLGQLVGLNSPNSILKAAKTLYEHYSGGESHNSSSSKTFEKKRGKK
Assay: Mps-1 kinase assay (TR-FRET)
Type: biochemical
Details: GST-tagged human full length recombinant Mps-1; 10 μM ATP; 1 μM peptide substrate; 60 min at 22° C.
In short: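 N-terminally GST-tagged full-length recombinant human Mps-1, about 1 nM final, phosphorylates a biotinylated peptide. Product detected by TR-FRET from Eu-anti-phospho-Ser/Thr antibody to streptavidin-XLent after 1 h at 22° C.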

| SMILES | IC50 [nM] |
| --- | --- |
| Cc1cc(-c2cnc3c(NCCC4CCN(C)CC4)nc(C4=CCOCC4)cn23)ccc1C(=O)NC1CC1 [Example 6-14, N-cyclopropyl-4-[6-(3,6-dihydro-2H-pyran-4-yl)-8-{[2-(1-methyl-piperidin-4-yl)ethyl]amino}imidazo[1,2-a]pyrazin-3-yl]-2-methylbenzamide] | 293 |
| O=C(NC1CC1)c1ccc(-c2cnc3c(NCCC(F)(F)F)nc(C4=CCOCC4)cn23)cc1F [Example 1-56, N-cyclopropyl-4-{6-(3,6-dihydro-2H-pyran-4-yl)-8-[(3,3,3-trifluoro-propyl)amino]imidazo [1,2-a]pyrazin-3-yl}-2-fluorobenzamide] | 8.7 |
| CC(C)CNc1nc(-c2cnc3ccccc3c2)cn2c(-c3ccc(C(=O)NC4CC4)cc3)cnc12 [Example 1-2, N-cyclopropyl-4-{8-[(2-methylpropyl)amino]-6-(quinolin-3-yl)imidazo [1,2-a]pyrazin-3-yl} benzamide] | 43.8 |
| CC(C)CNc1nc(-c2ccc(S(=O)(=O)n3cccc3)cc2)cn2c(-c3ccc(C(=O)NC4CC4)cc3)cnc12 [Example 1-23, N-cyclopropyl-4-{8-[(2-methylpropyl)amino]-6-[4-(1H-pyrrol-1-yl-sulonyl)phenyl]imidazo [1,2-a]pyrazin-3-yl} benzamide] | 13.1 |
| COc1cc(C(=O)NC2CC2)ccc1-c1cnc2c(NCCCN)nc(-c3ccnn3C)cn12 [Example 1-102, 4-{8-[(3-Aminopropyl)amino]-6-(1-methyl-1H-pyrazol-5-yl)imidazo[1,2-a]pyrazin-3-yl}-N-cyclopropyl-3-methoxybenzamide] | 531 |
| O=C(NC1CC1)c1ccc(-c2cnc3c(NCCC(F)(F)F)nc(-c4ccn[nH]4)cn23)cc1F [Example 1-55, N-cyclopropyl-2-fluoro-4-{6-(1H-pyrazol-5-yl)-8-[(3,3,3-trifluoropropyl)amino]imidazo[1,2-a]pyrazin-3-yl}benzamide] | 9.6 |
| CC(C)CNc1nc(-c2ccccc2)cn2c(-c3ccc(C(=O)NC4CC4F)cc3)cnc12 (stereo not shown) [Example 2-2, N-(2-fluorocyclopropyl)-4-{8-[(2-methylpropyl)amino]-6-phenylimidazo [1,2-a]pyrazin-3-yl} benzamide] | 10.1 |
| Cc1cc(-c2cnc3c(NCC4CCCO4)nc(C4=CCOCC4)cn23)ccc1C(=O)NC1CC1 (stereo not shown) [Example 6-4, N-cyclopropyl-4-{6-(3,6-dihydro-2H-pyran-4-yl)-8-[(tetrahydrofuran-2-ylmethyl)amino]imidazo[1,2-a]pyrazin-3-yl}-2-methylbenzamide] | 35.7 |
| O=C(NC1CC1)c1ccc(-c2cnc3c(NCCO)nc(-c4ccncc4)cn23)cc1 [Example 3-4, N-cyclopropyl-4-{8-[(2-hydroxyethyl)amino]-6-(pyridin-4-yl)imidazo [1,2-a]pyrazin-3-yl} benzamide] | 11.3 |
| CC(C)CNc1nc(C2=CCOCC2)cn2c(-c3ccc(C(=O)NC4CC4)c(F)c3)cnc12 [Example 1-52, N-cyclopropyl-4-{6-(3,6-dihydro-2H-pyran-4-yl)-8-[(2-methylpropyl)amino]imidazo[1,2-a]pyrazin-3-yl}-2-fluoro-benzamide] | 8.2 |
| Cc1cc(-c2cnc3c(NCC(C)C)nc(C4=CCOCC4)cn23)ccc1C(=O)NC1CC1 [Example 6-5, N-cyclopropyl-4-{6-(3,6-dihydro-2H-pyran-4-y1)-8-[(2-methylpropyl)amino]imidazo[1,2-a]pyrazin-3-yl}-2-methylbenzamide] | 9.3 |
| CC(C)CNc1nc(C#N)cn2c(-c3ccc(C(=O)NC4CC4)cc3)cnc12 [Example 5-1, 4-{6-cyano-8-[(2-methylpropyl)amino]imidazo[1,2-a]pyrazin-3-yl}-N-cyclopropyl benzamide] | 55.1 |
| CC(C)(O)CNc1nc(C2=CCOCC2)cn2c(-c3ccc(C(=O)NC4CC4)c(F)c3)cnc12 [Example 1-60, N-cyclopropyl-4-{6-(3,6-dihydro-2H-pyran-4-yl)-8-[(2-hydroxy-2-methylpropyl)amino]imidazo[1,2-a]pyrazin-3-yl}-2-fluorobenzamide] | 30.4 |
| CC(C)CNc1nc(C(N)=O)cn2c(-c3ccc(C(=O)NC4CC4)cc3)cnc12 [Example 14-1, 3-[4-(cyclopropylcarbamoyl)phenyl]-8-[(2-methylpropyl)amino]imidazo[1,2-a]pyrazine-6-carboxamide] | 9.9 |
| COc1cc(C(=O)NC2CC2)ccc1-c1cnc2c(NCCCN)nc(-c3ccncc3)cn12 [Example 1-100, 4-{8-[(3-Aminopropyl)amino]-6-(pyridin-4-yl)imidazo [1,2-a]pyrazin-3-yl}-N-cyclopropyl-3-methoxy-benzamide] | 309 |
| CC(=O)Nc1ccc(-c2cn3c(-c4ccc(C(=O)NC5CC5)cc4)cnc3c(NCC(C)C)n2)cn1 [Example 1-25, 4-{6-[6-(acetylamino)pyridin-3-yl]-8-[(2-methyl-propyl)amino]imidazo [1,2-a]pyrazin-3-yl}-N-cyclopropylbenzamide] | 8.9 |

Compounds with a lower IC50, results first:

| IC50 [nM] | SMILES |
| --- | --- |
| 6.5 | CNC(=O)CCCCc1cn2c(-c3ccc(C(=O)NC4CC4)cc3)cnc2c(NCC(C)C)n1 [Example 7-5, N-cyclopropyl-4-{6-[5-(methylamino)-5-oxopentyl]-8-[(2-methylpropyl)amino]imidazo[1,2-a]pyrazin-3-yl} benzamide] |
| 4.6 | CC(C)CNc1nc(-c2cnn(C)c2)cn2c(-c3ccc(C(=O)NC4CC4)cc3)cnc12 [Example 1-8, N-cyclopropyl-4-{8-[(2-methylpropyl)amino]-6-(1-methyl-1H-pyrazol-4-yl)imidazo[1,2-a]pyrazin-3-yl}benzamide] |
| 1.1 | O=C(NC1CC1)c1ccc(-c2cnc3c(NCCC(F)(F)F)nc(-c4ccncc4)cn23)cc1 [Example 3-22, N-cyclopropyl-4-{6-(pyridin-4-yl)-8-[(3,3,3-trifluoropropyl)amino]imidazo[1,2-a]pyrazin-3-yl}benzamide] |
| < 1 | Cc1cc(-c2cnc3c(NCCC(F)(F)F)nc(Sc4cccc(F)c4)cn23)ccc1C(=O)NC1CC1 [Example 15-3, N-cyclopropyl-4-{6-[(3-fluorophenyl)sulfanyl]-8-[(3,3,3-trifluoropropyl)amino]imidazo[1,2-a]pyrazin-3-yl}-2-methylbenzamide] |
| 2.7 | O=C(NC1CC1)c1ccc(-c2cnc3c(NCc4c(F)cccc4F)nc(-c4ccncc4)cn23)cc1 [Example 3-15, N-cyclopropyl-4-{8-[(2,6-difluorobenzyl)amino]-6-(pyridin-4-yl)imidazo [1,2-a]pyrazin-3-yl} benzamide] |
| 4.1 | Cc1cc(-c2cnc3c(NCCC(F)(F)F)nc(-c4c(C)noc4C)cn23)ccc1C(=O)NC1CC1 [Example 1-74, N-cyclopropyl-4-{6-(3,5-dimethyl-1,2-oxazol-4-yl)-8-[(3,3,3-trifluoro-propyl)amino]imidazo [1,2-a]pyrazin-3-yl}-2-methylbenzamide] |
| 3.8 | Cc1cc(-c2cnc3c(NCCC(F)(F)F)nc(-c4cccn4C)cn23)ccc1C(=O)NC1CC1 [Example 1-75, N-cyclopropyl-2-methyl-4-{6-(1-methyl-1H-pyrrol-2-yl)-8-[(3,3,3-trifluoro-propyl)amino]imidazo [1,2-a]pyrazin-3-yl} benzamide] |
| 4.1 | O=C(NC1CC1)c1ccc(-c2cnc3c(NCCCCO)nc(-c4ccncc4)cn23)cc1 [Example 3-11, N-cyclopropyl-4-{8-[(4-hydroxybutyl)amino]-6-(pyridin-4-yl)imidazo [1,2-a]pyrazin-3-yl} benzamide] |
| 2.8 | Cn1nccc1CNc1nc(-c2ccncc2)cn2c(-c3ccc(C(=O)NC4CC4)cc3)cnc12 [Example 3-28, N-cyclopropyl-4-[8-{[(1-methyl-1H-pyrazol-5-yl)methyl]amino}-6-(pyridin-4-yl)imidazo [1,2-a]pyrazin-3-yl] benzamide] |
| 3.5 | O=C(NC1CC1)c1ccc(-c2cnc3c(NCC4CCCCO4)nc(-c4ccncc4)cn23)cc1 (stereo not shown) [Example 3-36, N-cyclopropyl-4-{6-(pyridin-4-yl)-8-[(tetrahydro-2H-pyran-2-ylmethyl)amino]imidazo[1,2-a]pyrazin-3-yl} benzamide] |
| 4.2 | CC(C)CNc1nc(-c2ccnc(Cl)c2)cn2c(-c3ccc(C(=O)NC4CC4)cc3)cnc12 [Example 1-7, 4-{6-(2-chloropyridin-4-yl)-8-[(2-methylpropyl)amino]imidazo[1,2-a]pyrazin-3-yl}-N-cyclo-propylbenzamide] |
| 6.6 | O=C(NC1CC1)c1ccc(-c2cnc3c(NCCC(F)(F)F)nc(-c4ccoc4)cn23)cc1F [Example 1-54, N-cyclopropyl-2-fluoro-4-{6-(furan-3-yl)-8-[(3,3,3-trifluoropropyl)amino]imidazo[1,2-a]pyrazin-3-yl}benzamide] |
